Measured values as given in patent publication US20130323231A1, “TREATMENT AND PROGNOSIS OF SOLID TUMOUR CANCERS” (ROYAL COLLEGE OF SURGEONS IN IRELAND, priority 2011, published 2013).

Legend:
HCT116 cells = test: Calculated oxaliplatin IC50 in parental HCT116 cells; settings: read-out: calculated IC50
[1] = system: oxaliplatin resistance HCT116 cells; test: Calculated oxaliplatin IC50 in oxaliplatin resistant HCT116 cells; settings: read-out: calculated IC50; HCT116 cells rendered oxaliplatin resistant by stepwise increasing oxaliplatin over 16 passages

SMILES: O=C1[O][Pt]2([NH][C@@H]3CCCC[C@H]3[NH]2)[O]C1=O [oxaliplatin]
- IC50 (HCT116 cells): 350 nM
- IC50 [1]: 5000 nM
